Results taken from patent US12473294B2, “Selective modulators of mutant LRRK2 proteolysis and associated methods of use” (Arvinas Operations, Inc., priority 2020, dated 2025).

How the values were obtained:
G2019S LRRK2 = biological target: T1, G2019S LRRK2 (Homo sapiens, UniProt Q5S007, G2019S); experiment: LRRK2 degradation HiBit assay, G2019S LRRK2 tagged with a HiBit tag expressed in HEK293 cells; format: cell-based; settings: 24 hours compound incubation; for Dmax: HEK293, HEK293 cells; for DC50: HEK293 cells
T1 construct: expressed in transfected cells; host or cells: HEK293 (ATCC CRL-1573)
Protocol: (§1) The assay measures the degradation of wildtype and G2019S LRRK2 tagged with a HiBit tag on the C-terminus of the protein that was expressed from a mammalian expression vector, driven by the ubiquitin promoter in HEK293 cells. Each compound dose-response was repeated on three separate days, on three separate plates each day.
(§2) Plasmid Preparation. Transfection mixes were assembled as follows and incubated for 30 minutes at room temperature. In a 15 mL tube, 5.25 mL Opti-MEM (no additions) was mixed with 17 μL Firefly Luciferase plasmid at 1 μg/μL and 158 μL WT plasmid DNA at 1 μg/μL (175 μg total DNA) were mixed by flicking. In a new 15 mL tube, 5.25 mL OptiMEM was mixed with 17 μL Firefly Luciferase plasmid at 1 μg/μL and 158 μL G2019S plasmid DNA at 1 μg/μL (175 μg total DNA) were mixed by flicking. X-tremeGene HP was mixed thoroughly using a vortex. Next, 175 μL was added to each tube and flicked to mix. Both tubes were left to incubate for 30 minutes at room temperature.
While the transfection mixes were incubating, HEK293 cells acquired from ATCC (ATCC CRL-1573) were harvested with trypsin. Once cells are detached, the cells were resuspended in 12 mL OptiMEM+5% FBS and transferred to a 50 mL tube. The cells were mixed well and counted. Using OptiMEM+5% FBS, the cells were diluted in two 250 mL conical tubes at 0.71×10^6 cells/mL in 70 mL. One tube was labeled “WT” and the other “G2019S”. The WT and G2019S transfection mixes were added dropwise to the corresponding 250 mL tubes. The tubes were mixed first by pipetting then by swirling. The tubes were incubated at room temperature for at least 5 minutes.
(§3) Each tube was swirled before dispensing and after every three plates. Seventy microliters of cells were dispensed with WT or G2019S DNA to seven plates each. Three plates of each were tested with compound plate one (preparation described below) and three plates of each were tested with compound plate two (preparation described below). The first plate from each set served as a “prime” plate and was not used to test compounds. Each plate was incubated in the hood for 10 minutes before placing in the 37° C. incubator for 24 hours.
(§4) Preparation of Compound and Assay Plates. Two compound plates were made using 96 well polypropylene plates. Compounds were made up at 10 mM and were diluted to 1 mM in 30 μL. Each dose response curve included a well of DMSO, as a negative control and for normalization, and a well of 0.5 μM of Exemplary Compound 4 as a positive control. In addition to seven test compounds, each plate also included a dose response of Exemplary Compound 4. The compound plates were spun down along at 1200 rpm for 2 minutes.
(§5) The two compound plates were then mixed and 2 μL was diluted in intermediate plates having 248 μL of Opti-Mem in each well. Next, 10 μL diluted compounds from the intermediate plates were added to each test plate (three WT and three G2019S plates per compound plate for a total of 12 assay plates). The plates were incubated for 24 hours at 37° C.
(§6) All assay plates and all Nano-Glo Dual-Luciferase Reporter Assay System components (except for the DLR substrate) were equilibrated to room temperature. Next, the luciferase buffer was mixed with the lyophilized amber bottle until fully dissolved, and 75 μL of the luciferase mixture was added to each well of each assay plate. The assay plates were incubated for 10 minutes at room temperature with shaking for at least 5 minutes, and then read on a plate reader.
(§7) Developing Plates and Analyzing Data. One milliliter of DLR substrate and 1 mL LgBiT Protein were added to the Stop and Glo buffer, and 75 μL of the mixture was added to each well of each plate. Optically clear seals were added to each plate and each plate was incubated for 20 minutes with shaking for at least 10 minutes, and then read on a plate reader. […]

wildtype LRRK2 = biological target: T2, wildtype LRRK2 (Homo sapiens, UniProt Q5S007); experiment: LRRK2 degradation HiBit assay, wildtype LRRK2 tagged with a HiBit tag in HEK293 cells; format: cell-based; settings: 24 hours compound incubation; for DC50: read-out: *WT DC50; for Dmax: read-out: ** WT Dmax (%)
T2 construct: endogenous in cells; host or cells: HEK293 with HiBit knocked in at the 3' end of the endogenous LRRK2 gene, stably expressing firefly luciferase
Protocol: as §1, with “repeated on two separate days,” for “repeated on three separate days,”
as §2
While the transfection mixes were incubating, HEK293 cells (acquired from ATCC; ATCC CRL-1573) were harvested with trypsin. Once cells are detached, the cells were resuspended in 12 mL OptiMEM+5% FBS and transferred to a 50 mL tube. The cells were mixed well and counted. Using OptiMEM+5% FBS, the cells were diluted in two 250 mL conical tubes at 0.71×10^6 cells/mL in 70 mL. One tube was labeled “WT” and the other “G2019S”. The WT and G2019S transfection mixes were added dropwise to the corresponding 250 mL tubes. The tubes were mixed first by pipetting then by swirling. The tubes were incubated at room temperature for at least 5 minutes.
as §3, §4, §5, §6, §7

T1 sequence (Q5S007 whole entry G2019S): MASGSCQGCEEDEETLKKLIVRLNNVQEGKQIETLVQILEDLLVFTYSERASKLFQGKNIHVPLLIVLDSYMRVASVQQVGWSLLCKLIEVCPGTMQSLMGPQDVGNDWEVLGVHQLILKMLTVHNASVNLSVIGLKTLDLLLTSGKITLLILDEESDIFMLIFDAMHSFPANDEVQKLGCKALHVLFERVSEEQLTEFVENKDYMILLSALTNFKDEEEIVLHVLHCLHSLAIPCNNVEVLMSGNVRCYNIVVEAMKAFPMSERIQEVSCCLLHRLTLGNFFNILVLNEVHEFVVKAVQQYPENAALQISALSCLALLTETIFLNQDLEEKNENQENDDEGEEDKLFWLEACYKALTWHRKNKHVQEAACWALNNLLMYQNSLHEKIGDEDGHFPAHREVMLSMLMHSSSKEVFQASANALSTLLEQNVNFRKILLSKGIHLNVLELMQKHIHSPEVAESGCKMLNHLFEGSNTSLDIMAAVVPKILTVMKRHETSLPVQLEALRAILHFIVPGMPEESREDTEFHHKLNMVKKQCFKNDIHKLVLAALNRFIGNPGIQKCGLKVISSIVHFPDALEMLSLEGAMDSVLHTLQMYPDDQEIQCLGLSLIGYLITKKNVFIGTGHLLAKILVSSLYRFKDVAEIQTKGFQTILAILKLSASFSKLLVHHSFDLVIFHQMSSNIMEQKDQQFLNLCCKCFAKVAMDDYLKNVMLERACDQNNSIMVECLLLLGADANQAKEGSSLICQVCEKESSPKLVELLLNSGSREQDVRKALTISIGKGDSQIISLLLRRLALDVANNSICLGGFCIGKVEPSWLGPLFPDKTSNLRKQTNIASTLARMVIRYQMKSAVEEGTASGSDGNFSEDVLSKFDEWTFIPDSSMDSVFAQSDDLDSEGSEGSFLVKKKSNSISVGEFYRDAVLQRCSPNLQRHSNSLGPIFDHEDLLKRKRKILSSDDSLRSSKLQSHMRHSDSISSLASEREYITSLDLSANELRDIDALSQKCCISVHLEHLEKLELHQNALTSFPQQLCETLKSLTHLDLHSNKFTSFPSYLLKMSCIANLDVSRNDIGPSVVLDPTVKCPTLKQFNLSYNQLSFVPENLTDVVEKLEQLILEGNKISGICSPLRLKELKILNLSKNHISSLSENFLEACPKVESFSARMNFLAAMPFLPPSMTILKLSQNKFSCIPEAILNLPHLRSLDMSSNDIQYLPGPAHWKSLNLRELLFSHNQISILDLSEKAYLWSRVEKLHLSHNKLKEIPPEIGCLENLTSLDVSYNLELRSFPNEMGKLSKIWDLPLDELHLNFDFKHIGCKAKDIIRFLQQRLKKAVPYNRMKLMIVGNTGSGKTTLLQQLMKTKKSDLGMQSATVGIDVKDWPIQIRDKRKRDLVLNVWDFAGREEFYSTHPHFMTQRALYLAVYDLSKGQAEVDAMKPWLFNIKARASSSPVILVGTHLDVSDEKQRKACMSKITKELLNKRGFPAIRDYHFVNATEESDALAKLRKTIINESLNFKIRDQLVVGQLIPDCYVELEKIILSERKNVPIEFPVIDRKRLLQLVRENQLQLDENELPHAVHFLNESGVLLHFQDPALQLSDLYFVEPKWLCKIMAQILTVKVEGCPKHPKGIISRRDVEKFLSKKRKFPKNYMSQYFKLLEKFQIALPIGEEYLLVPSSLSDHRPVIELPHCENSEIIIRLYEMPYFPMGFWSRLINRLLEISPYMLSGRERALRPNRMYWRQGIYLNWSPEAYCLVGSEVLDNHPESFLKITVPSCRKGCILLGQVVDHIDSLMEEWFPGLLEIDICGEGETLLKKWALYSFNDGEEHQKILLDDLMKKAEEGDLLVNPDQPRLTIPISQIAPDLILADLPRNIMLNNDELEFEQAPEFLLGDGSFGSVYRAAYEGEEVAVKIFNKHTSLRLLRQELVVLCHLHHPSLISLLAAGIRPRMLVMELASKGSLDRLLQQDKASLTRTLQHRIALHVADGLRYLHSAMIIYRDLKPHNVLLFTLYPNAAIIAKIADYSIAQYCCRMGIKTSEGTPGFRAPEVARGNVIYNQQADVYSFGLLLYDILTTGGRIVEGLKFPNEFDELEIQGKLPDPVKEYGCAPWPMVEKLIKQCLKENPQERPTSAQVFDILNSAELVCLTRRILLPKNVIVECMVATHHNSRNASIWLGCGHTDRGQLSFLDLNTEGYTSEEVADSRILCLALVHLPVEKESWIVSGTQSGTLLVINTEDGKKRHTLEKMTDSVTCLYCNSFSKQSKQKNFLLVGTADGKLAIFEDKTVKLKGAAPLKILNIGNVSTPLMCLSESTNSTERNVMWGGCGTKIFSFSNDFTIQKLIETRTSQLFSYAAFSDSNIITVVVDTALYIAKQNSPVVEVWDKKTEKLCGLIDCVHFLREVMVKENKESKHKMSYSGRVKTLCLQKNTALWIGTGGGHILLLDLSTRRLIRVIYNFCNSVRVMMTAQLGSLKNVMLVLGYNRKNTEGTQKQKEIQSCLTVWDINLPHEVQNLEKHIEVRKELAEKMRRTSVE
T2 sequence (Q5S007 whole entry): as the sequence (Q5S007 whole entry G2019S) above, with S2019G counted along it

| SMILES | Dmax (G2019S LRRK2) | DC50 (G2019S LRRK2) | DC50 (wildtype LRRK2) | Dmax (wildtype LRRK2) |
| --- | --- | --- | --- | --- |
| CC1=C(C(=O)Nc2ccc3[nH]nc(-c4ccnc(N5C[C@@H](C)N(CCN6CCN(c7ccc8c(c7)C(=O)N(C7CCC(=O)NC7=O)C8=O)CC6)[C@@H](C)C5)c4)c3c2)Cn2nnnc2N1C (stereo partly drawn) [compound 5, N-(3-(2-((3R,5S)-4-(2-(4-(2-(2,6-dioxopiperidin-3-yl)-1,3-dioxoisoindolin-5-yl)piperazin-1-yl)ethyl)-3,5-dimethylpiperazin-1-yl)pyridin-4-yl)-1H-indazol-5-yl)-4,5-dimethyl-4,7-dihydrotetrazolo[1,5-a]pyrimidine-6-carboxamide] | < 50% | ≥ 100 nM | ≥ 100 nM | – |
| CC1=C(C(=O)Nc2ccc3[nH]nc(-c4ccnc(N5CCN(CCN6CCC(CN7CCN(c8ccc9c(c8)C(=O)N(C8CCC(=O)NC8=O)C9=O)CC7)CC6)CC5)c4)c3c2)[C@H](C)n2nnnc2N1C (stereo partly drawn) [compound 27, (7S)-N-{3-[2-(4-{2-[4-({4-[2-(2,6-dioxopiperidin-3-yl)-1,3-dioxo-2,3-dihydro-1H-isoindol-5-yl]piperazin-1-yl}methyl)piperidin-1-yl]ethyl}piperazin-1-yl)pyridin-4-yl]-1H-indazol-5-yl}-4,5,7-trimethyl-4H,7H-[1,2,3,4]tetrazolo[1,5-a]pyrimidine-6-carboxamide] | 50 to 70% | ≥ 100 nM | ≥ 100 nM | – |
| CC1=C(C(=O)Nc2ccc3[nH]nc(-c4ccnc(N5CCN(CC6CCN(C7CCN(c8ccc9c(c8)C(=O)N(C8CCC(=O)NC8=O)C9=O)CC7)CC6)CC5)c4)c3c2)[C@@H](C)n2nnnc2N1C (stereo partly drawn) [compound 18, (7R)-N-(3-(2-(4-((1-(1-(2-(2,6-dioxopiperidin-3-yl)-1,3-dioxoisoindolin-5-yl)piperidin-4-yl)piperidin-4-yl)methyl)piperazin-1-yl)pyridin-4-yl)-1H-indazol-5-yl)-4,5,7-trimethyl-4,7-dihydrotetrazolo[1,5-a]pyrimidine-6-carboxamide] | 50 to 70% | 50 to 100 nM | ≥ 100 nM | < 50% |

Second part, the compound after the results:

| Dmax (G2019S LRRK2) | DC50 (G2019S LRRK2) | DC50 (wildtype LRRK2) | Dmax (wildtype LRRK2) | SMILES |
| --- | --- | --- | --- | --- |
| < 50% | 10 to 50 nM | ≥ 100 nM | – | CC1=C(C(=O)Nc2ccc3[nH]nc(-c4ccnc(N5CCO[C@@H](CN6CCN(CC7CCN(c8ccc9c(c8)C(=O)N(C8CCC(=O)NC8=O)C9=O)CC7)CC6)C5)c4)c3c2)C(C)(C)n2nnnc2N1C (stereo partly drawn) [compound 32, N-(3-{2-[(2S)-2-{[4-({1-[2-(2,6-dioxopiperidin-3-yl)-1,3-dioxo-2,3-dihydro-1H-isoindol-5-yl]piperidin-4-yl}methyl)piperazin-1-yl]methyl}morpholin-4-yl]pyridin-4-yl}-1H-indazol-5-yl)-4,5,7,7-tetramethyl-4H,7H-[1,2,3,4]tetrazolo[1,5-a]pyrimidine-6-carboxamide] |
| < 50% | 10 to 50 nM | ≥ 100 nM | – | CC1=C(C(=O)Nc2ccc3[nH]nc(-c4ccnc(N5CCN(CC6CCN(CC7CCN(c8ccc9c(c8)C(=O)N(C8CCC(=O)NC8=O)C9=O)CC7)CC6)[C@@H](C)C5)c4)c3c2)C(C)(C)n2nnnc2N1C (stereo partly drawn) [compound 34, N-(3-{2-[(3S)-4-{[1-({1-[2-(2,6-dioxopiperidin-3-yl)-1,3-dioxo-2,3-dihydro-1H-isoindol-5-yl]piperidin-4-yl}methyl)piperidin-4-yl]methyl}-3-methylpiperazin-1-yl]pyridin-4-yl}-1H-indazol-5-yl)-4,5,7,7-tetramethyl-4H,7H-[1,2,3,4]tetrazolo[1,5-a]pyrimidine-6-carboxamide] |
| 50 to 70% | 10 to 50 nM | 10 to 50 nM | < 50% | CC1=C(C(=O)Nc2ccc3[nH]nc(-c4ccnc(N5CCN(C6CN(CC7CCN(c8ccc9c(c8)C(=O)N(C8CCC(=O)NC8=O)C9=O)CC7)C6)CC5)c4)c3c2)[C@@H](C)n2nnnc2N1C (stereo partly drawn) [compound 24, (7R)-N-[3-(2-{4-[1-({1-[2-(2,6-dioxopiperidin-3-yl)-1,3-dioxo-2,3-dihydro-1H-isoindol-5-yl]piperidin-4-yl}methyl)azetidin-3-yl]piperazin-1-yl}pyridin-4-yl)-1H-indazol-5-yl]-4,5,7-trimethyl-4H,7H-[1,2,3,4]tetrazolo[1,5-a]pyrimidine-6-carboxamide] |
